doi:10.1101/2024.01.22.576576v1, “Phenotypic screening of covalent compound libraries identifies chloromethyl ketone antibiotics and MiaA as a new target” (biorxiv, 2024)
Converted amounts (≈) assume the structure as drawn. Read-outs that look alike come from different tables or passages of the source.

Tests used:
S. flexneri M90T [1] = test system: T1, S. flexneri M90T; experiment: microbe, parasite or virus in culture; parameters: species or system bacterial strain; broth microdilution MIC, OD600, lowest concentration without visible bacterial growth; conditions: Shigella flexneri, read-out: MIC SF
T1 construct: M90T
Protocol: (§1) MIC measurement. The minimum inhibitory concentrations (MICs) of compounds were measured using the broth microdilution method.1 One stab using 10 µL tip from bacteria glycerol stock was inoculated into 5 mL of LB supplemented with selection antibiotics (Kanamycin for Keio collections and chloramphenicol for ASKA collections), and the culture was incubated at 37 °C with shaking overnight. […] The plate was incubated at 37 °C for 16 ~ 20 h with shaking at 80 rpm and the OD600 was measured using Cytation 5 plate reader (BioTek). MIC was determined as the lowest concentration for which no bacterial growth was observed. LB was used as the growth media for all the bacteria strains unless otherwise mentioned. For S. aureus and A. baumannii strains, tryptic soy broth (TSB, BD, DF0370-17-3) was used as the growth media instead of LB. For P. aeruginosa and K. pneumoniae strains, nutrient broth (NB, RPI, N15100) was used as growth media. All MIC measurements were performed in at least biological duplicates.

S. aureus MSSA476 = test system: T2, S. aureus MSSA476; experiment: microbe, parasite or virus in culture; parameters: species or system bacterial strain; broth microdilution MIC, OD600, lowest concentration without visible bacterial growth; conditions: Staphylococcus aureus, MSSA476, read-out: MIC SA
T2 construct: MSSA476
Protocol: as §1

V. cholerae SAD30 = test system: T3, V. cholerae SAD30; experiment: microbe, parasite or virus in culture; parameters: species or system bacterial strain; broth microdilution MIC, OD600, lowest concentration without visible bacterial growth; conditions: Vibrio cholerae, SAD30, read-out: MIC VC
T3 construct: SAD30
Protocol: as §1

E. coli JPN15 = test system: T4, E. coli JPN15; experiment: microbe, parasite or virus in culture; parameters: species or system bacterial strain; broth microdilution MIC, OD600, lowest concentration without visible bacterial growth; conditions: Escherichia coli, JPN15, read-out: MIC EC
T4 construct: JPN15 (EPEC)
Protocol: as §1

S. flexneri M90T [2] = experiment: microbe, parasite or virus in culture; conditions: Shigella flexneri, read-out: MIC SF
Protocol: as §1

Sf_MiaA [3] = target: T5, Sf_MiaA (Shigella flexneri, UniProt P59197); experiment: in-gel fluorescence competition with 5-TMRIA; format: binding; conditions: covalent; Cys273; 1 h preincubation
T5 construct: gene miaA; recombinant, purified from E. coli BL21; two cysteines in total; also native protein in live S. flexneri M90T (ABPP row)
T5 sequence (P59197 1-316): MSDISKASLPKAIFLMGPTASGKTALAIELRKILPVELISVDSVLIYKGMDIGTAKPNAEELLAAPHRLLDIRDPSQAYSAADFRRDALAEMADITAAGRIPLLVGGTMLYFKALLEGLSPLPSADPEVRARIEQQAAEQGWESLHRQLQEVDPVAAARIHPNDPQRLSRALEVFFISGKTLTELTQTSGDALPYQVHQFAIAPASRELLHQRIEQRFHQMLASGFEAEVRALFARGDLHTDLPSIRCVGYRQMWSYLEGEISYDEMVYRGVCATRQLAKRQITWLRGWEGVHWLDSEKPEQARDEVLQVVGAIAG

Sf_MiaA [4] = target: T5, Sf_MiaA; experiment: i6A-37 tRNA formation followed by LC-MS after preincubation; format: biochemical; conditions: covalent; Cys273; tRNA-Trp 34-mer substrate
Protocol: i6A-37 tRNA formation followed by LC-MS after preincubation on Sf_MiaA | preincubation of 10-F05 with MiaA decreased the initial velocity of modified tRNA forming rate

E. coli (KPC+) BAA-2340 = test system: T6, E. coli (KPC+) BAA-2340; experiment: microbe, parasite or virus in culture; parameters: species or system bacterial strain; broth microdilution MIC, OD600, lowest concentration without visible bacterial growth; conditions: Escherichia coli, BAA2340, read-out: 10-F05 MIC µM
T6 construct: BAA-2340 (KPC+)
Protocol: as §1

E. cloacae 13047 = test system: T7, E. cloacae 13047; experiment: microbe, parasite or virus in culture; parameters: species or system bacterial strain; broth microdilution MIC, OD600, lowest concentration without visible bacterial growth; conditions: Enterobacter cloacae, 13047, read-out: 10-F05 MIC µM
T7 construct: 13047
Protocol: as §1

K. pneumoniae 700603 = test system: T8, K. pneumoniae 700603; experiment: microbe, parasite or virus in culture; parameters: species or system bacterial strain; broth microdilution MIC, OD600, lowest concentration without visible bacterial growth; conditions: Klebsiella pneumoniae, 700603, read-out: 10-F05 MIC µM
T8 construct: 700603
Protocol: as §1

P. aeruginosa BAA-2110 = test system: T9, P. aeruginosa BAA-2110; experiment: microbe, parasite or virus in culture; parameters: species or system bacterial strain; broth microdilution MIC, OD600, lowest concentration without visible bacterial growth; conditions: Pseudomonas aeruginosa, BAA2110, read-out: 10-F05 MIC µM
T9 construct: BAA-2110
Protocol: as §1

A. baumannii BAA-1790 = test system: T10, A. baumannii BAA-1790; experiment: microbe, parasite or virus in culture; parameters: species or system bacterial strain; broth microdilution MIC, OD600, lowest concentration without visible bacterial growth; conditions: Acinetobacter baumannii, BAA1790, read-out: 10-F05 MIC µM
T10 construct: BAA-1790
Protocol: as §1

K. pneumoniae 13883 = test system: T11, K. pneumoniae 13883; experiment: microbe, parasite or virus in culture; parameters: species or system bacterial strain; broth microdilution MIC, OD600, lowest concentration without visible bacterial growth; conditions: Klebsiella pneumoniae, 13883, read-out: 10-F05 MIC µM
T11 construct: 13883
Protocol: as §1

Sf_PdxY = target: T12, Sf_PdxY (Shigella flexneri, UniProt Q83KY1); experiment: in-gel fluorescence competition with 5-TMRIA; format: binding; conditions: covalent; 1 h preincubation
T12 construct: gene pdxY; recombinant, purified from E. coli BL21; also native protein in live S. flexneri M90T (ABPP row)
T12 sequence (Q83KY1 1-287): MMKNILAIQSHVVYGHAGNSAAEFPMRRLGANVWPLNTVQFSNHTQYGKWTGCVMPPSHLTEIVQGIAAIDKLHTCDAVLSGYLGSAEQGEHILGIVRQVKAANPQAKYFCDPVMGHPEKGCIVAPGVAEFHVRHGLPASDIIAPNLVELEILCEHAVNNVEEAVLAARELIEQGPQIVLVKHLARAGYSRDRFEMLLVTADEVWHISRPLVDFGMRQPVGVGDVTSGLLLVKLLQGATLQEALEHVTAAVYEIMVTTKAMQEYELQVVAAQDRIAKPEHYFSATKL

Sf_FabH = target: T13, Sf_FabH (Shigella flexneri, UniProt Q83RS8); experiment: in-gel fluorescence competition with 5-TMRIA; format: binding; conditions: covalent; 1 h preincubation
T13 construct: gene fabH; recombinant, purified from E. coli BL21; also native protein in live S. flexneri M90T (ABPP rows)
T13 sequence (Q83RS8 1-317): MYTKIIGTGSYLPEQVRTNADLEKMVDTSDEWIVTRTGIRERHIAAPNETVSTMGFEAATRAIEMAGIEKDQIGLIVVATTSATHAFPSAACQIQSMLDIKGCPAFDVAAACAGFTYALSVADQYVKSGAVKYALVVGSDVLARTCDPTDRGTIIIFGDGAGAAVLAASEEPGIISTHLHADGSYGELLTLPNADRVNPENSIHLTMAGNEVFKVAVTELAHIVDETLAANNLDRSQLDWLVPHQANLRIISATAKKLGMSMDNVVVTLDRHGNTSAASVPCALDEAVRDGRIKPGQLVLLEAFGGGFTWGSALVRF

Sa_FabH = target: T14, Sa_FabH (Staphylococcus aureus, UniProt Q6GAU3); experiment: in-gel fluorescence competition with 5-TMRIA; format: binding; conditions: covalent
T14 construct: gene fabH; purified protein
T14 sequence (Q6GAU3 1-313): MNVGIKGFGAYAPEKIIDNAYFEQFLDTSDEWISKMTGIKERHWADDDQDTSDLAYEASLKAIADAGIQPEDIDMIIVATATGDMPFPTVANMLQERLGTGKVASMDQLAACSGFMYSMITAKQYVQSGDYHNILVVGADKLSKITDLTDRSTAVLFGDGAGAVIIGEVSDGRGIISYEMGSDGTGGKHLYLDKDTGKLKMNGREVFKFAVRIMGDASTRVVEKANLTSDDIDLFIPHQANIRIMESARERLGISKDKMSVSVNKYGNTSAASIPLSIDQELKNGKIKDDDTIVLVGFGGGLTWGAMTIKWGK

Row | Structure (SMILES) | MIC (S. flexneri M90T [1]) [µM] | MIC (S. aureus MSSA476) [µM] | MIC (V. cholerae SAD30) [µM] | MIC (E. coli JPN15) [µM] | MIC (S. flexneri M90T [2]) [µM] | other results
1 | O=C(CCl)c1cn(-c2cccc(C(F)(F)F)c2)nn1 [10-C09] | 25 (≈ 7.24 µg/mL) | 25 (≈ 7.24 µg/mL) | 100 (≈ 29 µg/mL) | 100 (≈ 29 µg/mL) | – | –
2 | CC(=O)c1cn(-c2ccc(F)cc2)nn1 [10-F05-N] | – | > 100 | > 100 | > 100 | > 100 | –
3 | O=C(CCl)c1cn(-c2ccc(F)cc2)nn1 [10-F05] | 2.5 (≈ 0.599 µg/mL) | 10 (≈ 2.4 µg/mL) | 10 (≈ 2.4 µg/mL) | 25 (≈ 5.99 µg/mL) | – | in-gel fluorescence competition with 5-TMRIA (Sf_MiaA [3]): indicating 10-F05 specifically reacts with MiaA Cys273; fold decrease in initial velocity (Sf_MiaA [4]): 1.7 fold; MIC (E. coli (KPC+) BAA-2340): 50 µM (≈ 12 µg/mL); MIC (E. cloacae 13047): 50 µM (≈ 12 µg/mL); MIC (K. pneumoniae 700603): > 100 µM; MIC (P. aeruginosa BAA-2110): > 100 µM; MIC (A. baumannii BAA-1790): > 100 µM; MIC (K. pneumoniae 13883): 50 µM (≈ 12 µg/mL); in-gel fluorescence competition with 5-TMRIA (Sf_PdxY): preincubation of 10-F05 decreased the 5-TMRIA labeling in a dose-dependent manner (Figure 5A); in-gel fluorescence competition with 5-TMRIA (Sf_FabH): rapid covalent bond formation between 10-F05 and Sf_FabH (Figure 5B); in-gel fluorescence competition with 5-TMRIA (Sa_FabH): 10-F05 was able to bind with S. aureus FabH (Sa_FabH, Figure 5C)
4 | CC(=O)c1cnccc1F [10-I09-N] | – | > 100 | > 100 | > 100 | > 100 | –
5 | CC(=O)c1ccccn1 [10-J03-N] | – | > 100 | > 100 | > 100 | > 100 | –
6 | CC(=O)c1cn(-c2cccc(C)c2)nn1 [10-L07-N] | – | > 100 | > 100 | > 100 | > 100 | –
7 | Cc1cccc(-n2cc(C(=O)CCl)nn2)c1 [10-L07] | 5 (≈ 1.18 µg/mL) | 10 (≈ 2.36 µg/mL) | 25 (≈ 5.89 µg/mL) | 50 (≈ 11.8 µg/mL) | – | –
8 | Cn1cc(C(=O)CCl)nn1 [10-M19] | 50 (≈ 7.98 µg/mL) | 100 (≈ 16 µg/mL) | 50 (≈ 7.98 µg/mL) | 50 (≈ 7.98 µg/mL) | – | –
